# Test results from PubChem BioAssay AID2503 (Sanford-Burnham Center for Chemical Genomics, 2010).
# Activity calls are given as the source filed them. The rule behind the calls is not given here.
# Tested on: MCF-7/NOD2 cells, MDP-induced IL-8 secretion
# Assay: NOD2 pathway IL-8 secretion inhibitors – MCF-7/NOD2 cells, MDP stimulus, set 2, SAR follow-up (AID 2503)
row,Structure (SMILES),IC50
1,Cn1c(=O)[nH]c(=O)c2c1nc([N+](=O)[O-])n2Cc1ccccc1,1.31 µM
2,CCC(=O)Nc1nc2ccccc2n1Cc1ccc(Cl)cc1,13.2 µM
3,COc1ccc(C(=O)Cn2c(N)nc3ccccc32)cc1,> 25 µM (inactive)
4,C=CCn1c(SCCCc2ccccc2)nc2c1c(=O)[nH]c(=O)n2C,> 25 µM (inactive)
5,Cc1ccc(S(=O)(=O)n2c(=S)[nH]c3cc(C)ccc32)cc1,> 25 µM (inactive)
6,CC(C)n1c(SCCCc2ccccc2)nc2c1c(=O)[nH]c(=O)n2C,> 25 µM (inactive)
7,C/C(Cl)=C\Cn1c(NCCc2ccccc2)nc2c1c(=O)n(C)c(=O)n2C,> 25 µM (inactive)
8,C/C=C/Cn1c(SCc2ccccc2)nc2c1c(=O)[nH]c(=O)n2C,> 25 µM (inactive)
9,C/C=C/Cn1c(SCCCc2ccccc2)nc2c1c(=O)[nH]c(=O)n2C,> 25 µM (inactive)
10,COCCn1c(SCCCc2ccccc2)nc2c1c(=O)[nH]c(=O)n2C,> 25 µM (inactive)
11,CCCCn1c(SCC(=O)Nc2nnc(CC)s2)nc2c1c(=O)n(C)c(=O)n2C,> 25 µM (inactive)
12,C/C=C/Cn1c(SCc2ccc(Cl)cc2)nc2c1c(=O)[nH]c(=O)n2C,> 25 µM (inactive)
13,CCCCn1c(SCC(=O)c2ccccc2)nc2c1c(=O)[nH]c(=O)n2C,> 25 µM (inactive)
14,CC(C)Sc1nc2c(c(=O)[nH]c(=O)n2C)n1Cc1ccccc1,> 25 µM (inactive)
15,O=C(Nc1nc2ccccc2n1Cc1ccc(Cl)cc1)c1ccco1,> 25 µM (inactive)
16,CCCCn1c(CN2CCN(c3cccc(Cl)c3)CC2)nc2c1c(=O)n(C)c(=O)n2C,> 25 µM (inactive)
17,CCCn1c(SCC(=O)Nc2nc3c(s2)CCCC3)nc2c1c(=O)n(C)c(=O)n2C,> 25 µM (inactive)
18,Nc1nc2ccccc2n1CCOc1ccc(Cl)cc1,> 25 µM (inactive)
19,Nc1nc2ccccc2n1Cc1ccc(Cl)cc1,4.59 µM
20,CCCCCn1c(SCCc2ccccc2)nc2c1c(=O)[nH]c(=O)n2C,> 25 µM (inactive)
21,CCCn1c(SCCc2ccccc2)nc2c1c(=O)[nH]c(=O)n2C,> 25 µM (inactive)
22,Oc1ccc(N=Nc2ccccc2C(F)(F)F)c2cccnc12,> 25 µM (inactive)
23,Cc1ccc(S(=O)(=O)n2c(N)nc3ccccc32)cc1,17.3 µM
